Reference: patent EP4015040A1, “METHOD FOR TREATING BLOOD DISEASES” (Fundación para la Formación e Investigación Sanitarias de …, priority 2020, dated 2022)

Target: T1, telomerase (Danio rerio, UniProt A2THE9)
T1 sequence (A2THE9 1-1098): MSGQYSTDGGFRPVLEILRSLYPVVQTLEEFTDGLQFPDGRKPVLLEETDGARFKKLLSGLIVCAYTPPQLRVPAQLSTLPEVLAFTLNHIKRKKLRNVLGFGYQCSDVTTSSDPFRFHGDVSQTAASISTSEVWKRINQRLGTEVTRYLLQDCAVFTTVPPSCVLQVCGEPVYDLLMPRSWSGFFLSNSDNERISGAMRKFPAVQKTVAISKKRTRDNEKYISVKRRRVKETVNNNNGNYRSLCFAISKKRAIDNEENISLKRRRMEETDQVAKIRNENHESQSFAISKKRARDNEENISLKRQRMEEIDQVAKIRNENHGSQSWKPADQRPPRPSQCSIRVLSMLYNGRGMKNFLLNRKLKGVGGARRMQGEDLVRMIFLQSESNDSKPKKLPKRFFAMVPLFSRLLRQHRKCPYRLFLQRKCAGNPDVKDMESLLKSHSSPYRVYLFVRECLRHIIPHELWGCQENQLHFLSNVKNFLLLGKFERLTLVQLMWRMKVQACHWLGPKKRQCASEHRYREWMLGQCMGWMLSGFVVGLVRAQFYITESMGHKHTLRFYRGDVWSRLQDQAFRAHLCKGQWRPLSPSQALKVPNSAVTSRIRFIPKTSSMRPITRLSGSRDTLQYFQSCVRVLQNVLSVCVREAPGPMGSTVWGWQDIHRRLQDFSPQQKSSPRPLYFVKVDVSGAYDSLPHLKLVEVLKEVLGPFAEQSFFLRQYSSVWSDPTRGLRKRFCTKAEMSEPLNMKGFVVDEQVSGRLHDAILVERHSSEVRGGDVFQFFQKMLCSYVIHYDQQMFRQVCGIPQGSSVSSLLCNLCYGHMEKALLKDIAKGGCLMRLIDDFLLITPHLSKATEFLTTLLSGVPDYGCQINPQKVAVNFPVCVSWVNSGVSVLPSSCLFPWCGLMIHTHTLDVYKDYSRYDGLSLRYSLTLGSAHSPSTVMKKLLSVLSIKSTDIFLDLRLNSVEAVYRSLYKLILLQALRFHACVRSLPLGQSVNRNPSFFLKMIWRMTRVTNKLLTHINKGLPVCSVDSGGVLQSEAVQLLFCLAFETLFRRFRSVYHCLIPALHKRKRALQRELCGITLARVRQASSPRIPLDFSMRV
Experiment: Telomerase activity assay (Q-TRAP) in protein extracts of microinjected larvae
Format: in vivo
Conditions: zebrafish; 20 µM microinjected, larvae collected at 48 hpf; read-out: reduction of telomerase activity

Which inhibition at 20 µM does the source give for `C/C(=C\C(=O)Nc1ccccc1C(=O)O)c1ccc2ccccc2c1` [BIBR1532] here?
Its inhibition at 20 µM is greater than 50%.
